From patent publication US5071848A, “Tricyclic quinoline antineoplastic agents” (Abbott Laboratories, priority 1989, dated 1991)
≈ marks a conversion by molar mass, not a printed value.

How the values were obtained:
[1] = system: DNA topoisomerase II; assay: DNA Breakage Assay: topoisomerase II-mediated DNA breakage (linearized 32P-labeled PBR 322 plasmid, agarose gel); type: biochemical, calf; parameters: key to Topoisomerase II-mediated DNA breakage, extent of breakage: SB: strong breakage; MB: moderate breakage; WB: weak breakage; settings: for Topoisomerase II-mediated DNA breakage, extent of breakage: at the concentration given; for Topoisomerase II-mediated DNA breakage, Concentration: concentration of compound which cleaves the DNA to smaller fragments, 30 minutes incubation
Experimental: Antitumor activity was assayed using the DNA Breakage Assay described below.
The DNA breakage assay requires two major reagents: DNA topoisomerase II and radiolabeled DNA. DNA topoisomerase II (topo II) was isolated from calf thymus as described by B. D. Holligan, et al. in J. Biol. Chem., 260, 2475-2482 (1985). Pure enzyme or partially purified extracts enriched in topo II activity may be used. PBR 322 plasmid was used as the DNA substrate. This plasmid, which is isolated in the closed circular form, is first linearized using, a restriction enzyme which cuts the plasmid in only one place. The newly exposed ends of the plasmid are then labeled with the radionuclide, 32P, using standard techniques described by T. Maniatis, et al. in "Molecular Cloning", Cold Spring Harbor Press, p. 115 (1982).
The enzyme and the radiolabeled DNA are added together first, then drug is added. After an incubation period of 30 minutes, the mixtures are quenched using 1% SDS. The mixtures are then subjected to agarose gel electrophoresis which separates the full length, linear substrate DNA from any small fragments that might be formed as a consequence of drug action. Smaller fragments run with a higher mobility. The distribution of the DNA species in the gel is assessed by autoradiography as described by T. Maniatis, et al. in "Molecular Cloning", Cold Spring Harbor Press, p. 115 (1982).
DNA breakage activity is assessed based on the level of substrate lost, the level of DNA appearing as smaller pieces running faster in the gel, and the distribution of these smaller pieces in the gel. The last criterion is important since drug-induced DNA cleavage that is enzyme-mediated fragmentation results in specific banding patterns due to the fact that the enzyme binds to specific sequences along the DNA molecule. A definite banding pattern is thus indicative of topo II-mediated cleavage and correlates well with anti-tumor activity.

[2] = system: Hela cells; assay: In vitro cytotoxicity assay (three day MTT microtiter assay), Hela; type: cell-based; settings: Homo sapiens, 72 h; Hela cells, three days, MTT; read-out: In vitro tumor cell cytotoxicity (IC50), Hela
Experimental: (§1) IC50 's were measured in a colorimetric assay for cytotoxic activity against cultured cells according to the protocol described below:
(§2) A three day microtiter assay is used to measure the growth inhibition of cultured cells exposed to a range of drug concentrations. Metabolic activity is measured by the cell's ability to reduce the tetrazolium dye, MTT (3-(4,5-dimethylthiazol-2-yl)-2,5-diphenyltetrazolium bromide) to a quantifiable colored end-product, which absorbs at 570 nm in the visible spectrum. Surviving cells reduce the MTT dye.
(§3) Test compounds are dissolved in dimethyl sulfoxide (DMSO) and diluted, first with Earle's Balanced Salt Solution, followed by culture medium, to twice the highest concentration of compound to be tested. From this concentrated stock, two-fold serial dilutions are prepared in 96-well microtiter trays, each well containing twice the desired final concentration of compound. Each concentration is tested in triplicate and compared to triplicate drug-free controls.
(§4) The cells are grown in the same medium used for diluting the compounds. After harvesting by trypsinization*, viable cell counts are determined and cell density is adjusted to 25,000 cells/mL. Inoculum (0.1 mL), containing the cells, is then added to each well for a final concentration of 2,500 cells per well. Addition of the inoculum dilutes the test compounds to the desired final concentration.
(§5) *Adherent cells are harvested by trypsinization as follows:
(§6) 1. Remove the medium by aspiration.
(§7) 2. Rinse cell monolayer twice with Earle's Balanced Salt Solution.
(§8) 3. Add trypsin (0.05%)/EDTA (0.53 mM). For each 25 cm^2 use approximately 0.2 mL of solution, tilt to cover the monolayer, then withdraw trypsin leaving only a thin film of solution. Incubate at room temperature until cell monolayer detaches.
(§9) 4. When the cells have detached as determined by visual and/or microscopic observation, add medium containing fetal calf serum to stop the action of the trypsin and resuspend the cells. Triturate to aid dissociation of cell clumps.
(§10) 5. Determine the number of cells per milliliter by electronic cell counter (e.g. Coulter Counter) or by mixing an aliquot of cell suspension with Trypan Blue (0.4% in normal saline) and counting the viable cells using a hemacytometer.
(§11) Microtiter trays are incubated for three days at 36° C. in a humidified atmosphere containing 5% carbon dioxide.
(§12) After three days, 20 microtiters of 5 mg/mL MTT in phosphate-buffered saline solution is added to each well. Trays are returned to the incubator for two to four hours to allow the surviving cells to reduce the dye. Medium and unreduced dye are removed by aspiration. DMSO is added to each well to dissolve the water insoluble, colored end product of the dye reduction so that it can be measured spectrophotometrically at 570 nm.

[3] = system: P388 Leukemia; assay: In vivo antitumor activity, P388 Leukemia, increased lifespan; parameters: species or system BDF1 mice; settings: IP, day 1 to day 5, survival monitored 30 days
Experimental: The in vivo data presented in Table 7 was determined in BDF1 mice for two murine cancer models, using 6 to 10 animals per test group. In the case of Lewis Lung carcinoma (LL) the mice are inoculated subcutaneously (SC) in the axillary region with a puncture in the inguinal area with the tumor on day 0. The compound being tested is administered intraperitoneally (IP) from day 1 to day 9 for a total of nine injections. The tumors are weighed on day 14 and the weight inhibition expressed as the median weight ratio of treated (T) to control (C) tumors. In the case of P388 Leukemia cells, a suspension of diluted ascites fluid (0.1 mL) containing 1×10^6 cells is implanted IP into the mice on day 0 and the compound being tested is administered IP from day 1 to day 5 for a total of five injections. Survival was monitored for 30 days and the increased lifespan expressed as median survival time of treated (T) to control (C) mice.

[4] = system: P388.D1 leukemia cell line; assay: In vitro cytotoxicity assay (three day MTT microtiter assay), P388.D1; type: cell-based; settings: Mus musculus, P388D1, 72 h, read-out: In vitro tumor cell cytotoxicity (IC50), P388.D1
Experimental: The cytotoxity of the compounds of the present invention is illustrated in Table 6. IC50 's were measured in a colorimetric assay for cytotoxic activity against cultured cells according to the protocol described below:
as §2, §3, §4, §5, §6, §7, §8, §9, §10, §11
as §12, with “nm. The IC50 is determined as the concentration of compound tested required to reduce the absorbance at 570 nm to 50% of non-drug treated control values.” for “nm.”
^c P388 D1 is a leukemia cell line.

[5] = system: A549 cell line; assay: In vitro cytotoxicity assay (three day MTT microtiter assay), A549; type: cell-based; settings: Homo sapiens, 72 h; A549, three days, MTT; read-out: In vitro tumor cell cytotoxicity (IC50), A549
Experimental: as §1, §2, §3, §4, §5, §6, §7, §8, §9, §10, §11, §12

Row | SMILES | Topoisomerase II-mediated DNA breakage, extent of breakage [1] | Topoisomerase II-mediated DNA breakage, Concentration [1] [µg/mL] | also measured
1 | O=c1[nH]sc2c1c(=O)c1cc(F)c(N3CCOCC3)c(F)c1n2C1CC1 [Example 1, 9-Cyclopropyl-6,8-difluoro-7-(1-morpholino)-2,3,4,9-tetrahydroisothiazolo[5,4-b]quinoline-3,4-dione] | SB | 32 | IC50 [2]: 7 µg/mL (≈ 18.5 µM); P388 Leukemia % T/C, median lifespan of treated compared to control mice ([3]; 31.25 mg/kg): 104%; P388 Leukemia % T/C, median lifespan of treated compared to control mice ([3]; 62.5 mg/kg): 100%; P388 Leukemia % T/C, median lifespan of treated compared to control mice ([3]; 125 mg/kg): 108%; P388 Leukemia % T/C, median lifespan of treated compared to control mice ([3]; 250 mg/kg): 108%
2 | CN1CCN(c2c(F)cc3c(=O)c4c(=O)[nH]sc4n(C4CC4)c3c2F)CC1 [Example 4] | SB | 32 | IC50 [2]: 1.3 µg/mL (≈ 3.31 µM)
3 | O=c1[nH]sc2c1c(=O)c1cc(F)c(N3CCN(CCO)CC3)c(F)c1n2C1CC1 [Example 5] | MB | 64 | IC50 [2]: 4 µg/mL (≈ 9.47 µM); P388 Leukemia % T/C, median lifespan of treated compared to control mice ([3]; 2.5 mg/kg): 125%; P388 Leukemia % T/C, median lifespan of treated compared to control mice ([3]; 5 mg/kg): 129%; P388 Leukemia % T/C, median lifespan of treated compared to control mice ([3]; 10 mg/kg): 142%; P388 Leukemia % T/C, median lifespan of treated compared to control mice ([3]; 12.5 mg/kg): 117%
4 | O=c1[nH]sc2c1c(=O)c1cc(F)c(N3CCSCC3)c(F)c1n2C1CC1 [Example 6] | SB | 32 | IC50 [4]: 6.3 µg/mL (≈ 15.9 µM); IC50 [5]: 12.5 µg/mL (≈ 31.6 µM)
5 | O=c1[nH]sc2c1c(=O)c1cc(F)c(N3CCCNCC3)c(F)c1n2C1CC1 [Example 7] | SB | 32 | IC50 [4]: 0.2 µg/mL (≈ 0.51 µM)
6 | O=c1[nH]sc2c1c(=O)c1cc(F)c(N3CCCCC3)c(F)c1n2C1CC1 [Example 8] | MB | 32 | IC50 [2]: 3.9 µg/mL (≈ 10.3 µM)
7 | O=c1[nH]sc2c1c(=O)c1cc(F)c(N3CCCC(O)C3)c(F)c1n2C1CC1 (centres unmarked) [Example 9] | SB | 32 | IC50 [4]: 2.05 µg/mL (≈ 5.21 µM); IC50 [5]: 3.9 µg/mL (≈ 9.91 µM)
8 | O=c1[nH]sc2c1c(=O)c1cc(F)c(N3CCC(O)CC3)c(F)c1n2C1CC1 [Example 10] | SB | 32 | IC50 [4]: 0.23 µg/mL (≈ 0.585 µM); IC50 [5]: 2.9 µg/mL (≈ 7.37 µM); P388 Leukemia % T/C, median lifespan of treated compared to control mice ([3]; 12.5 mg/kg): 129%; P388 Leukemia % T/C, median lifespan of treated compared to control mice ([3]; 25 mg/kg): 133%; P388 Leukemia % T/C, median lifespan of treated compared to control mice ([3]; 50 mg/kg): 133%; P388 Leukemia % T/C, median lifespan of treated compared to control mice ([3]; 100 mg/kg): 117%
9 | NCC1CCN(c2c(F)cc3c(=O)c4c(=O)[nH]sc4n(C4CC4)c3c2F)C1 (centres unmarked) [Example 12] | SB | 32 | IC50 [4]: < 0.05 µg/mL; IC50 [5]: 0.3 µg/mL (≈ 0.764 µM)
10 | O=c1[nH]sc2c1c(=O)c1cc(F)c(NC3CCN(Cc4ccccc4)CC3)c(F)c1n2C1CC1 [Example 13] | – | – | IC50 [2]: 0.55 µg/mL (≈ 1.14 µM)
11 | CCn1c2s[nH]c(=O)c2c(=O)c2cc(F)c(N3CCNC(C)C3)c(F)c21 (centres unmarked) [Example 15] | MB | 128 | –
12 | CCn1c2s[nH]c(=O)c2c(=O)c2cc(F)c(N3CCN(C)CC3)c(F)c21 [Example 16] | MB | 32 to 64 | –
13 | CCn1c2s[nH]c(=O)c2c(=O)c2cc(F)c(N3CCC(N)C3)c(F)c21 (centres unmarked) [Example 17] | WB | 32 to 64 | –
14 | O=c1[nH]sc2c1c(=O)c1cc(F)c(N3CCNCC3)cc1n2C1CC1 [Example 19, 9-Cyclopropyl-6-fluoro-7-(1-piperazinyl)-2,3,4,9-tetrahydroisothiazolo[5,4-b]quinoline-3,4-dione] | MB | 64 | –
15 | CC1CN(c2cc3c(cc2F)c(=O)c2c(=O)[nH]sc2n3C2CC2)CCN1C (centres unmarked) [Example 22] | WB | 128 | –
16 | O=c1[nH]sc2c1c(=O)c1cc(F)c(N3CCC(O)C3)cc1n2C1CC1 (centres unmarked) [Example 23] | WB | 32 to 128 | –
17 | CNC1CCN(c2cc3c(cc2F)c(=O)c2c(=O)[nH]sc2n3C2CC2)C1 (centres unmarked) [Example 25] | WB | 64 | –
18 | CCn1c2cc3c(cc2c(=O)c2c(=O)[nH]sc21)OCO3 [Example 29, 9-Ethyl-6,7-methylenedioxy-2,3,4,9-tetrahydroisothiazolo[5,4-b]quinoline-3,4-dione] | WB | 128 | –
19 | O=c1[nH]sc2c1c(=O)c1cc(F)c(N3CCCC3)c(F)c1n2C1CC1 [Example 32] | WB | 64 | –
